What all share (type): cell-based, mouse
The test system of data set [1] is NFATc1. The experiment in a line: Q-PCR of osteoclast marker gene: NFATc1. To be noted: RANKL 100 ng/ml, M-CSF 30 ng/ml, 5 days.
Data set [2] has as its system CTR. The experiment in a line: Q-PCR of osteoclast marker gene: CTR. To be noted: RANKL 100 ng/ml, M-CSF 30 ng/ml, 5 days.
In data set [3] the test system is CTSK. Put plainly: Q-PCR of osteoclast marker gene: CTSK. To be noted: RANKL 100 ng/ml, M-CSF 30 ng/ml, 5 days.
The test system of data set [4] is TRAP. The experiment in a line: Q-PCR of osteoclast marker gene: TRAP. To be noted: RANKL 100 ng/ml, M-CSF 30 ng/ml, 5 days.
Data set [5] concerns BMM cells [BMMs]. Put plainly: Annexin V-FITC/PI flow cytometry: apoptosis of BMMs. To be noted: BMMs, 0, 2.5, 5, 10 μM NCTD, 48 h. (In flow cytometry, cells or beads pass a laser one at a time.)
The test system of data set [6] is c-Jun N-terminal kinase (JNK) [c-Jun氨基端激酶(JNK)]. Put plainly: Western blot: JNK (MAPK family). The conditions noted are these: BMMs.
Data set [7] has as its system osteoclasts [破骨细胞]. Put plainly: TRAP staining: RANKL-induced osteoclast differentiation from BMMs. The conditions noted are these: RANKL induction 5 days, 0, 1, 2.5, 5, 10 μM NCTD.
For data set [8], the system named is p38 kinase [p38激酶]. Put plainly: Western blot: RANKL-stimulated p38 phosphorylation. The conditions noted are these: BMMs, RANKL 15 min; 0, 2.5, 5, 10 μM NCTD. On the technique in general: A western blot detects proteins with antibodies after separation by electrophoresis.
Data set [9] concerns osteoclasts [破骨细胞]. Put plainly: TRAP staining: stage of osteoclast formation inhibited by NCTD. To be noted: 5 μM NCTD.
Data set [10] has as its system c-Fos. The experiment in a line: Q-PCR of osteoclast marker gene: c-Fos. To be noted: RANKL 100 ng/ml, M-CSF 30 ng/ml, 5 days.
Data set [11] relates to IκBα. Put plainly: IκBα degradation (NF-κB signalling pathway).
Data set [12] relates to BMM cells [BMMs]. The experiment in a line: MTT assay of the effect of NCTD on viability of bone-marrow-derived macrophages. For orientation: Tetrazolium assays rely on reduction of a dye to a coloured formazan, in cell work by metabolically active cells.
Assay in data set [13]: as above
The conditions noted are these: mouse, bone marrow macrophages; MTT, BMMs, 48 h; read-out: concentration from which BMM activity begins to be affected.

Data set [14] concerns extracellular signal-regulated kinase (ERK) [细胞外信号调节激酶(ERK)]. Put plainly: Western blot: RANKL-stimulated ERK phosphorylation. The conditions noted are these: BMMs, RANKL 15 min; 0, 2.5, 5, 10 μM NCTD.
[15] abbreviates: pretreatment (12 h before RANKL).

The record followed here is patent CN108992440A, “去甲斑蝥素在制备治疗破骨细胞过度激活相关疾病药物中的应用” (priority 2018, dated 2018).

As for `O=C1OC(=O)C2C3CCC(O3)C12` (stereo not shown) [NCTD, 去甲斑蝥素], the NFATc1 expression result in data set [1] is given as “浓度依赖地抑制”. Further, the CTR expression entry in [2] is recorded as “浓度依赖地抑制”. Moreover, the CTSK expression entry in data set [3] is reported as “浓度依赖地抑制”. In data set [4], the TRAP expression entry is given as “浓度依赖地抑制”. Besides, in [5], the apoptosis entry is “不会引起细胞凋亡”. Also, the “inhibition of JNK” value in data set [6] (RANKL 15 min, 0, 2.5, 5, 10 μM NCTD) is listed as “没有明显抑制作用”. Further, the JNK phosphorylation entry in data set [6] (RANKL-stimulated) is on record as “没有影响”. Also, in data set [7], the “osteoclast formation (osteoclast number and area)” value is recorded as “能够明显抑制破骨细胞的生成,且呈剂量依赖性关系”. The p38 phosphorylation result in data set [8] is given as “明显受到抑制”. In addition, the “osteoclast number and area” value in data set [9] (early treatment (first 2 days of induction)) is reported as “能够显著改变破骨细胞数量和面积”. Besides, the osteoclast area result in data set [9] (late treatment (last 3 days of induction)) is listed as “对破骨细胞面积没有明显影响”. The osteoclast formation entry in [9] (setting [15]) is on record as “在一定程度上可抑制破骨细胞形成”. Also, the “osteoclast number and size vs control” value in [9] (setting [15]) is “均有明显差异”. In addition, the “inhibition of osteoclast differentiation” value in [9] (pretreatment + whole-course treatment) and in [9] (whole-course treatment (5 days)) was “对破骨细胞分化抑制最为明显” in each case. The c-Fos expression result in data set [10] is given as “浓度依赖地抑制”. Also, the IκBα degradation result in [11] (BMMs, RANKL-stimulated) is recorded as “没有抑制IκBα的降解”. Besides, the “RANKL-activated NF-κB signalling pathway” value in data set [11] (by IκBα degradation) is reported as “没有明显影响”. The IC50 in data set [12] (Mus musculus, Macrophage, MTT, BMMs, 48 h, 0-320 μM NCTD, GraphPad Prism, read-out: half-inhibitory concentration (IC50) on BMMs) came to 59.7 µM. For the same molecule, the “toxicity to BMM cells” value in data set [12] (at 10 μM and below) is “无毒性作用”. In addition, in data set [13], the MCC at 48 h was 20 µM. The ERK phosphorylation entry in data set [14] is “明显受到抑制”.
